Results as given in paper PMC7051184, “C9orf72 arginine-rich dipeptide repeat proteins disrupt karyopherin-mediated nuclear import” (eLife, 2020).

Tests used:
Assay type in all cases: biochemical, human
[1] = DPR aggregate formation in HEK lysate (pellet vs. supernatant, total protein); conditions: transport assay lysate
Protocol: Supernatant and pellet fractions (for all 5 DPRs, and control/buffer only) were prepared as in the nuclear transport assays, by adding 100 µM 10mers to 2.5 mg/ml HEK lysate in 100 µL TRB. Supernatants were boiled in Laemmli (BioRad) for 5 min. Pellets were boiled for 15 min followed by sonication in order to fully disperse aggregates for SDS-PAGE. Equal volumes of supernatant and pellet fractions were run on 4–12% Bolt Bis-Tris Plus gels (ThermoFisher), transferred to nitrocellulose membrane using an iBlot2 dry blotting system (ThermoFisher). Protein loading was analyzed by BLOT-Faststain (G-biosciences, St. Louis, MO), according to the manufacterers’ instructions. For immunodetection, membranes were blocked with 5% non-fat milk in TBST and probed by sequential incubation with the primary antibodies as detailed in the table below. Detection was by HRP-conjugated secondary antibodies/chemiluminescence using an ImageQuant LAS 4000 system (GE, Chicago, IL). To permit sequential probing of membranes without stripping, signals were quenched by incubation with prewarmed 30% H20_2 for 20 min ([Sennepin et al., 2009]). Band intensities were measured by ImageQuant software. For pellet vs. supernatant fractions, all were expressed as percent untreated control. […]

Ran = assay: DPR aggregation assay and western blot, Ran; conditions: Fig 5-suppl 3C, normalized to untreated HEK on same membrane;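 further: RNA rows contain added 20 µg total HEK RNA while no-RNA rows lack it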
Protocol: (§1) Supernatant and pellet fractions (for all 5 DPRs, and control/buffer only) were prepared as in the nuclear transport assays, by adding 100 µM 10mers to 2.5 mg/ml HEK lysate in 100 µL TRB. Supernatants were boiled in Laemmli (BioRad) for 5 min. Pellets were boiled for 15 min followed by sonication in order to fully disperse aggregates for SDS-PAGE. Equal volumes of supernatant and pellet fractions were run on 4–12% Bolt Bis-Tris Plus gels (ThermoFisher), transferred to nitrocellulose membrane using an iBlot2 dry blotting system (ThermoFisher). Protein loading was analyzed by BLOT-Faststain (G-biosciences, St. Louis, MO), according to the manufacterers’ instructions. For immunodetection, membranes were blocked with 5% non-fat milk in TBST and probed by sequential incubation with the primary antibodies as detailed in the table below. Detection was by HRP-conjugated secondary antibodies/chemiluminescence using an ImageQuant LAS 4000 system (GE, Chicago, IL). To permit sequential probing of membranes without stripping, signals were quenched by incubation with prewarmed 30% H20_2 for 20 min ([Sennepin et al., 2009]). Band intensities were measured by ImageQuant software. For pellet vs. supernatant fractions, all were expressed as percent untreated control. For blots in Figure 1E, samples were run on 4–20% SDS PAGE minigels (ThermoFisher) and blotted to PVDF membranes (Immun-Blot PVDF, Bio-Rad) using the Bio-Rad TransBlot Turbo apparatus, and probed as above. The chemiluminescence signal was captured with a Bio-Rad ChemiDoc XRS+ digital imaging system.

Rps25 = assay: DPR aggregation assay and western blot, Rps25; conditions: Fig 5-suppl 3C, normalized to untreated HEK on same membrane;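 further: RNA rows contain added 20 µg total HEK RNA while no-RNA rows lack it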
Description: Supplement elife-51685-fig5-data1.xlsx, sheet "Figure 5-figure suppl 3" | column: Rps25

importin β = assay: DPR aggregation assay and western blot, ImpB; conditions: Fig 5-suppl 3C, normalized to untreated HEK on same membrane;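 further: RNA rows contain added 20 µg total HEK RNA while no-RNA rows lack it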
Protocol: as §1

importin α = assay: DPR aggregation assay and western blot, ImpA; conditions: Fig 5-suppl 3C, normalized to untreated HEK on same membrane;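 further: RNA rows contain added 20 µg total HEK RNA while no-RNA rows lack it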
Protocol: as §1

transportin-1 (Tnpo1) = assay: DPR aggregation assay and western blot, Tnpo1; conditions: Fig 5-suppl 3C, normalized to untreated HEK on same membrane;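 further: RNA rows contain added 20 µg total HEK RNA while no-RNA rows lack it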
Protocol: as §1

RPS6 = assay: DPR aggregation assay and western blot, RPS6; conditions: Fig 5-suppl 3C, normalized to untreated HEK on same membrane;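 further: RNA rows contain added 20 µg total HEK RNA while no-RNA rows lack it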
Protocol: as §1

[2] = Pellet, no RNA (Untreated), blot 1
[3] = Pellet, no RNA (Untreated), blot 2
[4] = Supernatant, no RNA (Untreated), blot 1
[5] = Supernatant, no RNA (Untreated), blot 2

Substance: GA10: Synthetic 10-mer GA dipeptide repeat with C-terminal lysine and cysteine (GAGAGAGAGAGAGAGAGAGAKC)
- Aggregate formation in cell lysate [1]: did not observe GA-induced aggregate formation
- Ran band density, % untr control (Ran; Pellet, RNA, blot 1): 129.05%
- Ran band density, % untr control (Ran; Pellet, RNA, blot 2): 192.76%
- Ran band density, % untr control (Ran; [2]): 79.12%
- Ran band density, % untr control (Ran; [3]): 116.78%
- Ran band density, % untr control (Ran; Supernatant, RNA, blot 1): 116.22%
- Ran band density, % untr control (Ran; Supernatant, RNA, blot 2): 99.76%
- Ran band density, % untr control (Ran; [4]): 117.84%
- Ran band density, % untr control (Ran; [5]): 105.67%
- Rps25 band density, % untr control (Rps25; Pellet, RNA, blot 1): 48.52%
- Rps25 band density, % untr control (Rps25; Pellet, RNA, blot 2): 61.57%
- Rps25 band density, % untr control (Rps25; [2]): 84.83%
- Rps25 band density, % untr control (Rps25; [3]): 128.35%
- Rps25 band density, % untr control (Rps25; Supernatant, RNA, blot 1): 121.04%
- Rps25 band density, % untr control (Rps25; Supernatant, RNA, blot 2): 82.85%
- Rps25 band density, % untr control (Rps25; [4]): 112.04%
- Rps25 band density, % untr control (Rps25; [5]): 76.84%
- ImpB band density, % untr control (importin β; Pellet, RNA, blot 1): 90.07%
- ImpB band density, % untr control (importin β; Pellet, RNA, blot 2): 91.42%
- ImpB band density, % untr control (importin β; [2]): 90.15%
- ImpB band density, % untr control (importin β; [3]): 102.12%
- ImpB band density, % untr control (importin β; Supernatant, RNA, blot 1): 78.71%
- ImpB band density, % untr control (importin β; Supernatant, RNA, blot 2): 123.36%
- ImpB band density, % untr control (importin β; [4]): 89.10%
- ImpB band density, % untr control (importin β; [5]): 114.58%
- ImpA band density, % untr control (importin α; Pellet, RNA, blot 1): 93.99%
- ImpA band density, % untr control (importin α; Pellet, RNA, blot 2): 102.25%
- ImpA band density, % untr control (importin α; [2]): 106.73%
- ImpA band density, % untr control (importin α; [3]): 98.70%
- ImpA band density, % untr control (importin α; Supernatant, RNA, blot 1): 83.82%
- ImpA band density, % untr control (importin α; Supernatant, RNA, blot 2): 115.58%
- ImpA band density, % untr control (importin α; [4]): 82.83%
- ImpA band density, % untr control (importin α; [5]): 108.20%
- TNPO1 band density, % untr control (transportin-1 (Tnpo1); Pellet, RNA, blot 1): 84.30%
- TNPO1 band density, % untr control (transportin-1 (Tnpo1); Pellet, RNA, blot 2): 68.79%
- TNPO1 band density, % untr control (transportin-1 (Tnpo1); [2]): 107.97%
- TNPO1 band density, % untr control (transportin-1 (Tnpo1); [3]): 107.46%
- TNPO1 band density, % untr control (transportin-1 (Tnpo1); Supernatant, RNA, blot 1): 64.64%
- TNPO1 band density, % untr control (transportin-1 (Tnpo1); Supernatant, RNA, blot 2): 100.29%
- TNPO1 band density, % untr control (transportin-1 (Tnpo1); [4]): 66.29%
- TNPO1 band density, % untr control (transportin-1 (Tnpo1); [5]): 92.01%
- Rps6 band density, % untr control (RPS6; Pellet, RNA, blot 1): 45.85%
- Rps6 band density, % untr control (RPS6; Pellet, RNA, blot 2): 60.48%
- Rps6 band density, % untr control (RPS6; [2]): 113.52%
- Rps6 band density, % untr control (RPS6; [3]): 119.87%
- Rps6 band density, % untr control (RPS6; Supernatant, RNA, blot 1): 64.65%
- Rps6 band density, % untr control (RPS6; Supernatant, RNA, blot 2): 73.01%
- Rps6 band density, % untr control (RPS6; [4]): 90.06%
- Rps6 band density, % untr control (RPS6; [5]): 67.32%
